Drawing on patent US20260234130A1, “EP2 Antagonist Compounds” (Reservoir Neuroscience, Inc., priority 2022, published 2026), this text covers IC50 for 24 molecules.

Each structure is given as a SMILES string.

What is called IC50 is the concentration needed to halve the response being measured. Higher therefore signals weaker potency.

The target of the first test is T1, EP2 receptor (Homo sapiens, UniProt P43116).
T1 construct: expressed in transfected cells; host or cells: CHO-K1 cells (ATCC), transient transfection with FuGENE 6
T1 sequence (P43116 whole entry): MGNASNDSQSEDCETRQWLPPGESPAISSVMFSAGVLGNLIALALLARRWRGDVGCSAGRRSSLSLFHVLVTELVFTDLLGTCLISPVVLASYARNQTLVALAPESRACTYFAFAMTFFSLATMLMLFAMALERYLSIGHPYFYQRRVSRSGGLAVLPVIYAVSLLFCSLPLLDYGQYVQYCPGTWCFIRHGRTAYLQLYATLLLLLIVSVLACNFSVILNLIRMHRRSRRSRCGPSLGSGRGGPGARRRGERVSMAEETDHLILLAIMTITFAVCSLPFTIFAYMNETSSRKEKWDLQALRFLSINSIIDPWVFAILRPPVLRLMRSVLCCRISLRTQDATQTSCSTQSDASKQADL
As to the kind of experiment: EP2 potency assay (cAMP TR-FRET, LANCE Ultra cAMP kit) in transfected CHO-K1 cells stimulated with PGE2 at EC80. Type of test: cell-based. Particulars: Table (IV), EP2 antagonism, CHO-K1 cells expressing EP2, PGE2 at EC80. The method, then:
Compound potency was measured using a cAMP TR-FRET assay. CHO-K1 cells (ATCC) were seeded at a density of 9.75×105 in 6 cm plates, and then on the following day cell media was changed to Opti-Mem I reduced serum media (Gibco), and transfected with a plasmid for expression of the EP2 receptor (the target receptor of interest), using the FuGENE 6 Transfection reagent (Promega). After 6 hours incubation, the cell media was replaced with F12 medium supplemented with 10% FBS and 100 U/ml Pen-Strep. 24 hours after transfection, cells were harvested and seeded at a density of 3000 cells/well in a 384 well plate to perform the cAMP assay, using the LANCE Ultra cAMP assay kit (PerkinElmer). For each test compound of interest, 10 nl/well of serially diluted test compound was added to each well, resulting in a range of 10 serially diluted compound concentrations from 10000 nM to 0.038 nM, with duplicate wells for each concentration. Plates were then centrifuged at 1000 rpm for 1 min, agitated at 600 rpm at R.T. for 2 min, and incubated at 25° C. for 5 min. The reference agonist, prostaglandin E2 (MCE), was added to each well at the appropriate concentration to reach its EC80 value. Plates were then centrifuged at 1000 rpm for 1 min, agitated at 600 rpm at R.T. for 2 min, and incubated at 25° C. for 30 min. To measure levels of cAMP, 5 μl/well of Eu-cAMP working solution and 5 μl/well of Ulight-anti-cAMP working solution were added to each well, and the plate was centrifuged at 1000 rpm for 1 min, agitated at 600 rpm at R.T. for 2 min, and incubated at 25° C. for 15 min. Levels of TR-FRET fluorescence were measured in each well using an EnVision microplate reader (excitation wavelength=337 nm and emission wavelength=615 and 665 nm). A dose-response curve was prepared by plotting percent inhibition for each compound concentration, and then IC50 was calculated by fitting a curve to the plotted values and extrapolating the IC50 concentration. […] Potency data is grouped into categories of AA (IC50<100 nM); A (IC50=100 to 500 nM); B (IC50=500 nM to […]); C (IC50=1 μM to 5 μM); and D (IC50>5 μM).
(Time-resolved FRET reads energy transfer from a long-lived donor to a nearby acceptor.)
`COc1ccc(C(N2CCC(COc3ccc(-c4ccc(C#N)cc4)cc3)(C(=O)O)C2)C(F)(F)F)cc1` (stereo not drawn) [I-2, 3-(((4′-cyano-[1,1′-biphenyl]-4-yl)oxy)methyl)-1-(2,2,2-trifluoro-1-(4-methoxyphenyl)ethyl)pyrrolidine-3-carboxylic acid] had an IC50 of more than 5000 nM.
The same measure, in the same setting: next, `COc1ccc(C(=O)N2CCC(COc3ccc(C45CC(C#N)(C4)C5)cc3)(C(=O)O)C2)cc1` (stereo not drawn) [I-6, 3-((4-(3-cyanobicyclo[1.1.1]pentan-1-yl)phenoxy)methyl)-1-(4-methoxybenzoyl)pyrrolidine-3-carboxylic acid]: less than 100 nM.
Consider `COc1ccc(C(=O)N2CCC(COc3ccc(C45CC(C4)C5)cc3)(C(=O)O)C2)cc1` (stereo not drawn) [I-7, 3-((4-(bicyclo[1.1.1]pentan-1-yl)phenoxy)methyl)-1-(4-methoxybenzoyl)pyrrolidine-3-carboxylic acid], for which the IC50 fell in the range of 100 to 500 nM.
The same measure, in the same setting: next, `COc1ccc(C(=O)N2CCC(COc3ccc(C45CC(C(N)=O)(C4)C5)cc3)(C(=O)O)C2)cc1` (stereo not drawn) [I-8, 3-(4-{3-carbamoylbicyclo[1.1.1]pentan-1-yl}phenoxymethyl)-1-(4-methoxybenzoyl)pyrrolidine-3-carboxylic acid]: 100 to 500 nM.
Still for that read-out and setting: next, `COc1ccc(C(=O)N2CCC(COc3ccc(-c4ccc(C#N)cc4)cc3)(S(C)(=N)=O)C2)cc1` (stereo not drawn) [I-9, 4′-((1-(4-methoxybenzoyl)-3-(S-methylsulfonimidoyl)pyrrolidin-3-yl)methoxy)-[1,1′-biphenyl]-4-carbonitrile]: more than 5000 nM; `COc1ccc(C(=O)N2CCC(COc3ccc(-c4ccc(C#N)cc4)cc3)(S(=O)(=O)NS(C)(=O)=O)C2)cc1` (stereo not drawn) [I-10, 3-(((4′-cyano-[1,1′-biphenyl]-4-yl)oxy)methyl)-1-(4-methoxybenzoyl)-N-(methylsulfonyl)pyrrolidine-3-sulfonamide]: more than 5000 nM.
The molecule `COc1ccc(C(=O)N2CCC(COc3ccc(C45CC(C(=O)O)(C4)C5)cc3)(C(=O)O)C2)cc1` (stereo not drawn) [I-11, 3-((4-(3-carboxybicyclo[1.1.1]pentan-1-yl)phenoxy)methyl)-1-(4-methoxybenzoyl)pyrrolidine-3-carboxylic acid] had an IC50 of more than 5000 nM.
The same measure, in the same setting: next, `COc1ccc(C(=O)N2CCC(COc3ccc(-c4ccc(C#N)cc4)cc3)(C(O)C(F)(F)F)C2)cc1` (stereo not drawn) [I-12, 4′-((1-(4-methoxybenzoyl)-3-(2,2,2-trifluoro-1-hydroxyethyl)pyrrolidin-3-yl)methoxy)-[1,1′-biphenyl]-4-carbonitrile]: more than 5000 nM.
On to `COc1ccc(C(=O)N2CCC(COc3ccc(-c4ccc(C#N)cc4)cc3)(C(O)(O)C(F)(F)F)C2)cc1` (stereo not drawn) [I-13, 4′-((1-(4-methoxybenzoyl)-3-(2,2,2-trifluoro-1,1-dihydroxyethyl)pyrrolidin-3-yl)methoxy)-[1,1′-biphenyl]-4-carbonitrile], for which the IC50 is more than 5000 nM.
Still for that read-out and setting: next, `COc1ccc(C(=O)N2CCC(COc3ccc(Br)cc3)(C(O)C(F)(F)F)C2)cc1` (stereo not drawn) [I-14, (3-((4-bromophenoxy)methyl)-3-(2,2,2-trifluoro-1-hydroxyethyl)pyrrolidin-1-yl)(4-methoxyphenyl)methanone]: more than 5000 nM.

The test is the same for the next values; noted with them: Table (V), EP2 antagonism, CHO-K1 cells expressing EP2, PGE2 at EC80.
With `Fc1ccc2c(ccn2-c2cc(Cl)c3c(c2)CN(Cc2cnc(OCC(F)(F)F)nc2)CCO3)c1` [II-1, 9-chloro-7-(5-fluoro-1H-indol-1-yl)-4-((2-(2,2,2-trifluoroethoxy)pyrimidin-5-yl)methyl)-2,3,4,5-tetrahydrobenzo [f][1,4]oxazepine], the IC50 was more than 5000 nM.
`Cn1cc(-c2ncc(CN3CCOc4c(Cl)cc(-n5ccc6cc(F)ccc65)cc4C3)cn2)cn1` [II-2, 9-chloro-7-(5-fluoro-1H-indol-1-yl)-4-((2-(1-methyl-1H-pyrazol-4-yl)pyrimidin-5-yl)methyl)-2,3,4,5-tetrahydrobenzo[f][1,4] oxazepine] came in with a half-inhibitory concentration (IC50) of 1000 to 5000 nM.
Still for that read-out and setting: to `COc1ncc(CN2CCOc3c(Cl)cc(N4CCN(C)c5cc(F)ccc54)cc3C2)cn1` [II-3, 9-chloro-7-(6-fluoro-4-methyl-3,4-dihydroquinoxalin-1(2H)-yl)-4-((2-methoxypyrimidin-5-yl)methyl)-2,3,4,5-tetrahydrobenzo[f][1,4] oxazepine] belongs more than 5000 nM; to `O=c1ncc(CN2CCOc3c(Cl)cc(-n4ccc5cc(F)c(F)cc54)cc3C2)c[nH]1` [II-4, 5-((9-chloro-7-(5,6-difluoro-1H-indol-1-yl)-2,3-dihydrobenzo[f][1,4]oxazepin-4(5H)-yl)methyl)pyrimidin-2(1H)-one], 1000 to 5000 nM.
`Cc1ncc(CN2CCOc3c(Cl)cc(-n4ccc5cc(F)ccc54)cc3C2)cn1` [II-5, 9-chloro-7-(5-fluoro-1H-indol-1-yl)-4-((2-methylpyrimidin-5-yl)methyl)-2,3,4,5-tetrahydrobenzo[f][1,4] oxazepine] yielded a 50% inhibitory concentration (IC50) of 100 to 500 nM.
Still for that read-out and setting: next, `N#Cc1ncc(CN2CCOc3c(Cl)cc(-n4ccc5cc(F)ccc54)cc3C2)cn1` [II-6, 5-((9-chloro-7-(5-fluoro-1H-indol-1-yl)-2,3-dihydrobenzo[f][1,4]oxazepin-4(5H)-yl)methyl)pyrimidine-2-carbonitrile]: 500 to 1000 nM; `Fc1ccc2c(ccn2-c2cc(Cl)c3c(c2)CN(Cc2cnc(-n4cccn4)nc2)CCO3)c1` [II-7, 4-((2-(1H-pyrazol-1-yl)pyrimidin-5-yl)methyl)-9-chloro-7-(5-fluoro-1H-indol-1-yl)-2,3,4,5-tetrahydrobenzo[f][1,4] oxazepine]: 1000 to 5000 nM.
Still for that read-out and setting: next, `Fc1ccc2c(ccn2-c2cc(Cl)c3c(c2)CN(Cc2cnc(C(F)(F)F)nc2)CCO3)c1` [II-8, 9-chloro-7-(5-fluoro-1H-indol-1-yl)-4-((2-(trifluoromethyl)pyrimidin-5-yl)methyl)-2,3,4,5-tetrahydrobenzo[f][1,4] oxazepine]: 1000 to 5000 nM.
The same measure, in the same setting: to `Fc1ccc2c(ccn2-c2cc(Cl)c3c(c2)CN(Cc2cncnc2)CCO3)c1` [II-9, 9-chloro-7-(5-fluoro-1H-indol-1-yl)-4-(pyrimidin-5-ylmethyl)-2,3,4,5-tetrahydrobenzo[f][1,4] oxazepine] belongs 100 to 500 nM; to `COc1ncc(CN2CCOc3c(Cl)cc(-n4ccc5cc(C6CC6)ccc54)cc3C2)cn1` [II-10, 9-chloro-7-(5-cyclopropyl-1H-indol-1-yl)-4-((2-methoxypyrimidin-5-yl)methyl)-2,3,4,5-tetrahydrobenzo[f][1,4] oxazepine], more than 5000 nM; to `Nc1ncc(CN2CCOc3c(Cl)cc(-n4ccc5cc(F)ccc54)cc3C2)c(N)n1` [II-11, 5-((9-chloro-7-(5-fluoro-1H-indol-1-yl)-2,3-dihydrobenzo[f][1,4]oxazepin-4(5H)-yl)methyl)pyrimidin-2,4-diamine], 100 to 500 nM.
As to `CS(=O)(=O)Nc1ncc(CN2CCOc3c(Cl)cc(-n4ccc5cc(F)ccc54)cc3C2)cn1` [II-13], the 50% inhibitory concentration (IC50) is 1000 to 5000 nM.
Still for that read-out and setting: next, `CC(=O)Nc1ncc(CN2CCOc3c(Cl)cc(-n4ccc5cc(F)ccc54)cc3C2)cn1` [II-14, N-(5-((9-chloro-7-(5-fluoro-1H-indol-1-yl)-2,3-dihydrobenzo[f][1,4]oxazepin-4(5H)-yl)methyl)pyrimidin-2-yl)acetamide]: 1000 to 5000 nM; `O=C(O)c1ccc(CN2CCOc3c(Cl)cc(-n4ccc5cc(F)ccc54)cc3C2)cn1` [II-15, 5-((9-chloro-7-(5-fluoro-1H-indol-1-yl)-2,3-dihydrobenzo[f][1,4]oxazepin-4(5H)-yl)methyl)picolinic acid]: less than 100 nM.
